Experimental data as given in US9266883B2, “Ring-fused bicyclic pyridyl derivatives as FGFR4 inhibitors” (Novartis AG, priority 2013, dated 2016).
Like-named read-outs stand apart in the source and are kept apart here.

Assays:
[1] = molecular target: FGFR4 (GST-FGFR4(388-802)) (Homo sapiens (Human), UniProt P22455); assay: In-vitro biochemical kinase assay for FGFR4 (Caliper microfluidic mobility shift)
Tel-FGFR4 = Tel-FGFR4 (Homo sapiens (Human), UniProt P22455); assay: In vitro cellular kinase assay for FGFR4 (BaF3-Tel-FGFR4 cells, MSD capture ELISA of tyrosine phosphorylation); type: cell-based
Sequence of Tel-FGFR4 (P22455 other isoform, or with tags, fused parts or gaps): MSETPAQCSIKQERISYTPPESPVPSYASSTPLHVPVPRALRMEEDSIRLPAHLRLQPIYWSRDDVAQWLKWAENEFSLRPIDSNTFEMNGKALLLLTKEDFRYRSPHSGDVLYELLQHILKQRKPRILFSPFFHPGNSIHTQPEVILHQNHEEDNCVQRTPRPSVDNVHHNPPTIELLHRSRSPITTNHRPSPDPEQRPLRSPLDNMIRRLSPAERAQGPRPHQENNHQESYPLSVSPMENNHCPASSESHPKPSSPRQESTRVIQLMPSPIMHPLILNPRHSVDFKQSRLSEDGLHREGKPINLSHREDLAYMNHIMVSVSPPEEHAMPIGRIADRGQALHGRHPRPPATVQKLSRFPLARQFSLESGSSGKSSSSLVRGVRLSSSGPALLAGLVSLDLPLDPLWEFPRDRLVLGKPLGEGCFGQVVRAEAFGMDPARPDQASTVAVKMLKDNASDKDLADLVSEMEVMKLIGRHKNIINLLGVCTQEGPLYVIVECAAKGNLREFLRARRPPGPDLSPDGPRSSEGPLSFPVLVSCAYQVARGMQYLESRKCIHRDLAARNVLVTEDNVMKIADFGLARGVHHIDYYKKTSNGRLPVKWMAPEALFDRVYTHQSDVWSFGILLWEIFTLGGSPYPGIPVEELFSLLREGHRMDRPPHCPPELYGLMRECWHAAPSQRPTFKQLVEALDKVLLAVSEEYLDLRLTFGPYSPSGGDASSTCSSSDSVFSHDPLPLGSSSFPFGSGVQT

[2] = biochemical FGFR4 assay, read-out: Biochemical IC50
[3] = BaF3-Tel-FGFR4 cells, 1 hour incubation, read-out: Cellular BaF3 FGFR4 IC50
[4] = Cellular BaF3 FGFR4 assay, read-out: Cellular IC50
[5] = read-out: Biochemical FGFR4 IC50
[6] = read-out: IC50 in the biochemical assay

Sequence of FGFR4 (GST-FGFR4(388-802)) (P22455 388-802): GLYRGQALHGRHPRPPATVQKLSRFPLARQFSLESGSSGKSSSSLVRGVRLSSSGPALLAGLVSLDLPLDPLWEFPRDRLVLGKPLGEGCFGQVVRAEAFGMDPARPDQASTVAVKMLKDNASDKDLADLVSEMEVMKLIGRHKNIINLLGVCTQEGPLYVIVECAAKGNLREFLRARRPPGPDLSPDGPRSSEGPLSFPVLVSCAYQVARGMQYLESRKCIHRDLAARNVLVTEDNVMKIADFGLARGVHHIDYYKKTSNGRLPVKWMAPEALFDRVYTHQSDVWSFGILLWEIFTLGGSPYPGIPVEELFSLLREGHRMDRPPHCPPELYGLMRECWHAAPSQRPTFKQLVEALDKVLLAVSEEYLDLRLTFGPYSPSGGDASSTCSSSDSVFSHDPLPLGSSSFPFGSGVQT

SMILES	IC50 [1, 2] [nM]	IC50 [1, 5] [nM]	further results
CC(=O)N(C)Cc1cc2c(nc1C=O)N(C(=O)Nc1cc(O[C@H]3CCOC3)c(C#N)cn1)CCC2 [(S)-N-(5-cyano-4-((tetrahydrofuran-3-yl)oxy)pyridin-2-yl)-7-formyl-6-((N-methylacetamido)methyl)-3,4-dihydro-1,8-naphthyridine-1(2H)-carboxamide]	0.4		
COCCNc1cc(NC(=O)N2CCCc3cc(-c4cccs4)c(C=O)nc32)ncc1C#N [Example 253, N-(5-cyano-4-((2-methoxyethyl)amino)pyridin-2-yl)-7-formyl-6-(thiophen-2-yl)-3,4-dihydro-1,8-naphthyridine-1(2H)-carboxamide]			IC50 (Tel-FGFR4; [3]): 37 nM
CNc1cc(NC(=O)N2CCCc3cc(CN(C)C(=O)CN(C)C)c(C=O)nc32)ncc1C#N [N-(5-cyano-4-(methylamino)pyridin-2-yl)-6-((2-(dimethylamino)-N-methylacetamido)methyl)-7-formyl-3,4-dihydro-1,8-naphthyridine-1(2H)-carboxamide]			IC50 (Tel-FGFR4; [4]): 11.3 nM
CCc1cc(NC(=O)N2CCCc3cc(CO)c(C=O)nc32)ncc1C#N [N-(5-cyano-4-ethylpyridin-2-yl)-7-formyl-6-(hydroxymethyl)-3,4-dihydro-1,8-naphthyridine-1(2H)-carboxamide]	960		
Cc1cnc(NC(=O)N2CCCc3ccc(C=O)nc32)cc1C [Example 6, N-(4,5-dimethylpyridin-2-yl)-7-formyl-3,4-dihydro-1,8-naphthyridine-1(2H)-carboxamide]		110	
Cc1ccc(NC(=O)N2CCOc3ccc(C=O)nc32)nc1 [Example 9, 6-formyl-N-(5-methylpyridin-2-yl)-2H-pyrido[3,2-b][1,4]oxazine-4(3H)-carboxamide]		190	
COCC(C)(C)Nc1cc(NC(=O)N2CCCc3cc(C(F)F)c(C=O)nc32)ncc1C#N [N-(5-cyano-4-((1-methoxy-2-methylpropan-2-yl)amino)pyridin-2-yl)-6-(difluoromethyl)-7-formyl-3,4-dihydro-1,8-naphthyridine-1(2H)-carboxamide]	4.3		
N#Cc1cnc(NC(=O)N2CCCc3cc(C(F)F)c(C=O)nc32)cc1OCC(F)(F)F [N-(5-cyano-4-(2,2,2-trifluoroethoxyl)pyridin-2-yl)-6-(difluoromethyl)-7-formyl-3,4-dihydro-1,8-naphthyridine-1(2H)-carboxamide]	110		
O=Cc1nc2c(cc1CO)CCCN2C(=O)Nc1ccc(C(F)(F)F)cn1 [Example 18, 7-formyl-6-(hydroxymethyl)-N-(5-(trifluoromethyl)pyridin-2-yl)-3,4-dihydro-1,8-naphthyridine-1(2H)-carboxamide]		98	
N#Cc1cnc(NC(=O)N2CCCc3ccc(C=O)nc32)cc1OC1CCOC1 (racemic) [Example 40, N-(5-cyano-4-((tetrahydrofuran-3-yl)oxy)pyridin-2-yl)-7-formyl-3,4-dihydro-1,8-naphthyridine-1(2H)-carboxamide]		0.7	
CC(C)S(=O)(=O)c1ccccc1Nc1nc(NC(=O)N2CCCc3ccc(C=O)nc32)ncc1Cl [Example 16, N-(5-chloro-4-((2-(isopropylsulfonyl)phenyl)amino)pyrimidin-2-yl)-7-formyl-3,4-dihydro-1,8-naphthyridine-1(2H)-carboxamide]		0.2	
CC(C)Oc1cc(NC(=O)N2CCCc3cc(C4CCOC4)c(C=O)nc32)ncc1C#N (racemic) [Example 264, N-(5-cyano-4-isopropoxypyridin-2-yl)-7-formyl-6-(tetrahydrofuran-3-yl)-3,4-dihydro-1,8-naphthyridine-1(2H)-carboxamide]		1	
COCCOc1cc(NC(=O)N2CCCc3cc(CN4CCCC4=O)c(C=O)nc32)ncc1C#N [N-(5-cyano-4-(2-methoxyethoxyl)pyridin-2-yl)-7-formyl-6-((2-oxopyrrolidin-1-yl)methyl)-3,4-dihydro-1,8-naphthyridine-1(2H)-carboxamide]			IC50 [1, 6]: > 1000 nM
N#Cc1ccc(NC(=O)N2CCCc3cc(C(F)F)c(C=O)nc32)nc1 [Example 37, N-(5-cyanopyridin-2-yl)-6-(difluoromethyl)-7-formyl-3,4-dihydro-1,8-naphthyridine-1(2H)-carboxamide]		19	
O=Cc1nc2c(cc1F)CCCN2C(=O)Nc1ccc(C(F)(F)F)cn1 [Example 15, 6-fluoro-7-formyl-N-(5-(trifluoromethyl)pyridin-2-yl)-3,4-dihydro-1,8-naphthyridine-1(2H)-carboxamide]		45	
CC(=O)N(C)Cc1cc2c(nc1C=O)N(C(=O)Nc1cc(OCc3cccs3)c(C#N)cn1)CCC2 [Example 239, N-(5-cyano-4-(thiophen-2-ylmethoxy)pyridin-2-yl)-7-formyl-6-((N-methylacetamido)methyl)-3,4-dihydro-1,8-naphthyridine-1(2H)-carboxamide]			IC50 (Tel-FGFR4; [3]): 19.6 nM

SMILES	IC50 [1, 2] [nM]	IC50 [1, 5] [nM]	further results
CNc1cc(NC(=O)N2CCCc3cc(CN4CCN(C)CC4=O)c(C=O)nc32)ncc1C#N [N-(5-cyano-4-(methylamino)pyridin-2-yl)-7-formyl-6-((4-methyl-2-oxopiperazin-1-yl)methyl)-3,4-dihydro-1,8-naphthyridine-1(2H)-carboxamide]			IC50 (Tel-FGFR4; [4]): 3.7 nM
CN(C)CCOc1cc(NC(=O)N2CCOc3ccc([13CH]=O)nc32)ncc1C#N [Example 77, N-(5-cyano-4-(2-(dimethylamino)ethoxy)pyridin-2-yl)-6-form-^13C-yl-2H-pyrido[3,2-b][1,4]oxazine-4(3H)-carboxamide]		43	
CC(=O)N(C)Cc1cc2c(nc1C=O)N(C(=O)Nc1cc(OC(C)C)c(C#N)cn1)CCC2 [N-(5-cyano-4-isopropoxypyridin-2-yl)-7-formyl-6-((N-methylacetamido)methyl)-3,4-dihydro-1,8-naphthyridine-1(2H)-carboxamide]	1.5		
O=Cc1nc2c(cc1CO)CCCN2C(=O)Nc1nccc(O[C@H]2CCOC2)n1 [(S)-7-formyl-6-(hydroxymethyl)-N-(4-((tetrahydrofuran-3-yl)oxy)pyrimidin-2-yl)-3,4-dihydro-1,8-naphthyridine-1(2H)-carboxamide]			IC50 [1, 6]: > 1000 nM
COCCOc1nc(NC(=O)N2CCCc3cc(C(F)F)c(C=O)nc32)ncc1C#N [N-(5-cyano-4-(2-methoxyethoxyl)pyrimidin-2-yl)-6-(difluoromethyl)-7-formyl-3,4-dihydro-1,8-naphthyridine-1(2H)-carboxamide]	28		
CC(=O)N(C)Cc1cc2c(nc1C=O)N(C(=O)Nc1cc(OCC(F)(F)F)c(C#N)cn1)CCC2 [N-(5-cyano-4-(2,2,2-trifluoroethoxyl)pyridin-2-yl)-7-formyl-6-((N-methylacetamido)methyl)-3,4-dihydro-1,8-naphthyridine-1(2H)-carboxamide]	0.5		
N#Cc1cnc(NC(=O)N2CCCc3cc(CO)c(C=O)nc32)cc1NCCF [Example 88, N-(5-cyano-4-((2-fluoroethyl)amino)pyridin-2-yl)-7-formyl-6-(hydroxymethyl)-3,4-dihydro-1,8-naphthyridine-1(2H)-carboxamide]		2.3	
N#Cc1cnc(NC(=O)N2CCCc3cc(CO)c(C=O)nc32)cc1OCC1CNCCO1 (centres unmarked) [N-(5-cyano-4-(morpholin-2-ylmethoxy)pyridin-2-yl)-7-formyl-6-(hydroxymethyl)-3,4-dihydro-1,8-naphthyridine-1(2H)-carboxamide]	350		
COc1cc(NC(=O)N2CCCc3cc(CN4CCN(C)CC4=O)c(C=O)nc32)ncc1C(F)(F)F [7-formyl-N-(4-methoxy-5-(trifluoromethyl)pyridin-2-yl)-6-((4-methyl-2-oxopiperazin-1-yl)methyl)-3,4-dihydro-1,8-naphthyridine-1(2H)-carboxamide]	89.5		
CC(=O)N(C)Cc1cc2c(nc1C=O)N(C(=O)Nc1cc(NCC(C)(C)O)c(C#N)cn1)CCC2 [N-(5-cyano-4-((2-hydroxy-2-methylpropyl)amino)pyridin-2-yl)-7-formyl-6-((N-methylacetamido)methyl)-3,4-dihydro-1,8-naphthyridine-1(2H)-carboxamide]	1.6		
COCC(C)Nc1cc(NC(=O)N2CCCc3cc(CN(C)C(C)=O)c(C=O)nc32)ncc1C#N (centres unmarked) [N-(5-cyano-4-((1-methoxypropan-2-yl)amino)pyridin-2-yl)-7-formyl-6-((N-methylacetamido)methyl)-3,4-dihydro-1,8-naphthyridine-1(2H)-carboxamide]	0.8		
COCCNc1cc(NC(=O)N2CCCc3cc(-n4cnc(C)n4)c(C=O)nc32)ncc1C#N [Example 260, N-(5-cyano-4-((2-methoxyethyl)amino)pyridin-2-yl)-7-formyl-6-(3-methyl-1H-1,2,4-triazol-1-yl)-3,4-dihydro-1,8-naphthyridine-1(2H)-carboxamide]		14	
N#Cc1cnc(NC(=O)N2CCCc3cc(C(F)F)c(C=O)nc32)cc1OCC1CNCCO1 (centres unmarked) [N-(5-cyano-4-(morpholin-2-ylmethoxy)pyridin-2-yl)-6-(difluoromethyl)-7-formyl-3,4-dihydro-1,8-naphthyridine-1(2H)-carboxamide]			IC50 (Tel-FGFR4; [4]): 10.8 nM
Cc1cc2c(nc1C=O)N(C(=O)Nc1ccc(C(F)(F)F)cn1)CCC2 [Example 20, 7-formyl-6-methyl-N-(5-(trifluoromethyl)pyridin-2-yl)-3,4-dihydro-1,8-naphthyridine-1(2H)-carboxamide]		68.5	
CN1CCC2(CCN(c3cc(NC(=O)N4CCCc5ccc(C=O)nc54)ncc3C#N)CC2)C1 [Example 28, N-(5-cyano-4-(2-methyl-2,8-diazaspiro[4.5]decan-8-yl)pyridin-2-yl)-7-formyl-3,4-dihydro-1,8-naphthyridine-1(2H)-carboxamide]		3.4	
CN(C)CC1CN(c2cc(NC(=O)N3CCCc4cc(CO)c(C=O)nc43)ncc2C#N)CCO1 (racemic) [Example 81, N-(5-cyano-4-(2-((dimethylamino)methyl)morpholino)pyridin-2-yl)-7-formyl-6-(hydroxymethyl)-3,4-dihydro-1,8-naphthyridine-1(2H)-carboxamide]			IC50 (Tel-FGFR4; [3]): 146 nM
